Assay results from patent publication US8476253B2, “Amide derivative” (Daiichi Sankyo Company, Limited, priority 2009, dated 2013).
Where a name gives a salt, the structure may show the parent alone. Read-outs that look alike come from different tables or passages of the source.

Assays:
substance P receptor = target: T1, substance P receptor (Cavia porcellus, UniProt P30547); experiment: Test for binding to guinea-pig substance P receptor (crude lung membrane sample); details: crude guinea-pig lung membrane sample, [3H]substance P; Ki from IC50 and Kd; read-out: Ki
T1 construct: A preparation of a crude lung membrane sample was prepared; from tissue; host or cells: guinea-pig lung (crude membrane sample)
T1 sequence (P30547 whole entry): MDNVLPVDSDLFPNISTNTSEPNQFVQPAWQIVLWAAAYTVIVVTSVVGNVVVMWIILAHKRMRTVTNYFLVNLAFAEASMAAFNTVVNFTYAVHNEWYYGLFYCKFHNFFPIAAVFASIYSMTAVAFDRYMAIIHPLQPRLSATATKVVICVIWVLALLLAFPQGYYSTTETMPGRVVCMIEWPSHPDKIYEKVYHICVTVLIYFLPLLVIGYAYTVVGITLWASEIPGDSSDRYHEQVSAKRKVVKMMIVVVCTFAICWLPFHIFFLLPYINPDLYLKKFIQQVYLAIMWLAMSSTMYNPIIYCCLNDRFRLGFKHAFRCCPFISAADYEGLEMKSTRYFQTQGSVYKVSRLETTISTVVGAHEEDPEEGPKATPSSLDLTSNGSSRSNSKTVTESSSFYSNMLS
Method: A preparation of a crude lung membrane sample was prepared, and a test for binding of a test substance to the sample was performed according to the method described in EP0336230A2.
The binding effect of the test substance to a substance P receptor was calculated as an affinity (Ki) of the test substance for the substance P receptor from a 50% binding concentration (IC50) and an affinity (Kd) of [^3H]substance P for the substance P receptor.

human M3 receptor = target: T2, human M3 receptor (Homo sapiens, UniProt P20309); experiment: Test for binding to human M3 receptor
T2 construct: expressed in transfected cells; host or cells: CHO cells
T2 sequence (P20309 whole entry): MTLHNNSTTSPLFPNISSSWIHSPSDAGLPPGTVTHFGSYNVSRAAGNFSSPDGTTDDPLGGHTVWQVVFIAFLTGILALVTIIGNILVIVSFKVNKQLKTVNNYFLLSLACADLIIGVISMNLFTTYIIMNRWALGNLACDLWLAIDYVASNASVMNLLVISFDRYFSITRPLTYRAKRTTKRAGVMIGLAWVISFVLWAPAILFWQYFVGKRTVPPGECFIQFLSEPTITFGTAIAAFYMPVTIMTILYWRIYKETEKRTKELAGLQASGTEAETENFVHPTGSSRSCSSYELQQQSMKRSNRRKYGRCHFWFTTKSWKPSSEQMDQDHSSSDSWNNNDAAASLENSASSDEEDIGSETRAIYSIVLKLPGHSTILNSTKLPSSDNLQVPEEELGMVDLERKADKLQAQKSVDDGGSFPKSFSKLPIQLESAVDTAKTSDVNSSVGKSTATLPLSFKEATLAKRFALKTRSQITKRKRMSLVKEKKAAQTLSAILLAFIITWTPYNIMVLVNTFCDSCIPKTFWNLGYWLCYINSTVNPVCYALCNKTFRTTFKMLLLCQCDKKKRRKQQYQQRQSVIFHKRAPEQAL
In short: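 CHO-cell crude membranes expressing human M3 were incubated with [N-methyl-3H]-(−)-scopolamine methyl chloride in 50 mM Tris-HCl, 0.5 mM EDTA, pH 7.4, for 60 min at room temperature. Bound ligand was collected on PEI-pretreated glass-fibre filters and counted by liquid scintillation. Ki was calculated from IC50 and the radioligand Kd.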

muscarine M3 receptor = experiment: Effect of suppressing methacholine-induced airway contraction (in vivo, intratracheal administration); parameters: species or system guinea pig; details: guinea pigs, intratracheal administration 60 minutes before 30 μg/kg i.v. methacholine, AUC of increase in airway pressure over 10 minutes
Method: (§1) Using healthy guinea pigs (body weight, 350 to 550 g; Hartley male guinea pigs), the effect of suppressing airway contraction induced by methacholine, which is a muscarine receptor agonist, was examined by a modified method of Konzett-Roessler (Naunyn-Schmiedebergs Arch. Exp. Pathol. Pharmakol. 195, 71 [1940]) using airway pressure as an indicator.
(§2) A tracheal cannula and a venous cannula were attached to a guinea pig anesthetized with pentobarbital (50 mg/mL of solution, 0.40 to 0.50 mL/body, subcutaneous administration). An arterial cannula filled with heparin-containing physiological saline (100 U/mL) was further attached, and blood pressure and heart rate were monitored via an amplifier and an instantaneous heart rate meter. Subsequently, gallamine (20 mg/body, intravenous administration) was administered to terminate spontaneous breathing, and then 10 mL/kg of positive pressure breathing (Ugo-Basile Biological Research Apparatus, Cat. No. 7025) was rapidly performed at 60 times/min. The airway pressure during artificial breathing was detected with a pressure transducer (TP-200T or TP-400T; Nihon Kohden Corporation) attached to a side branch of the tracheal cannula, amplified (AP-601G; Nihon Kohden Corporation), and recorded in a recorder. After the airway pressure, blood pressure, and heart rate were stabilized, 30 μg/kg of methacholine was intravenously administered from the venous cannula to induce airway contraction, and the airway pressure was measured for the following 10 minutes.
A test substance was dissolved in 5% glucose solution, and a 0.5 mL/kg solution was administered intratracheally with an intratracheal administration apparatus (model 1A-1B; Penn-Century, Inc.) 60 minutes before stimulation with methacholine.
(§3) The AUC of increase in the airway pressure over 10 minutes after administration of methacholine was measured as the intensity of methacholine-induced airway contraction and calculated as an ID50 value from the inhibition rate based on the value of the control group (a 5% glucose solution intratracheal administration group).

neurokinin NK1 receptor = target: T3, neurokinin NK1 receptor (Cavia porcellus, UniProt P30547); experiment: Effect of suppressing substance P-induced airway contraction (in vivo, intratracheal administration); parameters: species or system guinea pig; details: guinea pigs, intratracheal administration 60 minutes before 20 μg/kg i.v. SP, AUC of increase in airway pressure over 10 minutes; for ED50: guinea pig, read-out: ID50 (the source's name)
T3 construct: Using healthy guinea pigs (body weight, 350 to 550 g; Hartley male guinea pigs); from tissue; host or cells: live anaesthetised Hartley male guinea pigs (airway, in vivo)
T3 sequence (P30547 whole entry): as the sequence (P30547 whole entry) above
Method: as §1, with “substance P (SP),” for “methacholine,”, “an NK1” for “a muscarine”
as §2, with “mg/mL” for “mg/mL of”, “20” for “30”, “SP” for “methacholine”
The test substance was dissolved in a 5% glucose solution, a 0.5 mL/kg solution was intratracheally administered with an intratracheal administration apparatus (model 1A-1B; Penn-Century, Inc.) 60 minutes before stimulation with SP.
as §3, with “SP” for “methacholine”, “determined” for “measured”, “SP-induced” for “methacholine-induced”, “(5%” for “(a 5%”

[1] = CHO cells expressing human M3 receptor, [N-methyl-3H]-(-)-Scopolamine methyl chloride 0.5 nM, Ki from IC50 and Kd, read-out: Ki

Structure (SMILES)	Ki (substance P receptor) [nM]	Ki (human M3 receptor; [1]) [nM]	ID50 (muscarine M3 receptor) [mg/kg]	ED50 (neurokinin NK1 receptor) [mg/kg]	Ki (human M3 receptor) [nM]	ID50 (neurokinin NK1 receptor) [mg/kg]	ID50 (muscarine M3 receptor; trihydrochloride) [mg/kg]
CN(CCN1CCC(OC(=O)Nc2ccccc2-c2ccccc2)CC1)C(=O)CCCCCNCc1ccc(C(=O)N(C)CCCN(C)C(=O)CO[C@H]2Cc3ccccc3C23CCN(CC[C@@]2(c4ccc(F)cc4)CN(C(=O)c4cc(C(F)(F)F)cc(C(F)(F)F)c4)CO2)CC3)s1 [Example 1, 1-{2-[{6-[({5-[{3-[({[(2S)-1′-{2-[(5R)-3-[3,5-Bis(trifluoromethyl)benzoyl]-5-(4-fluorophenyl)-1,3-oxazolidin-5-yl]ethyl}-2,3-dihydrospiro[indene-1,4′-piperidin]-2-yl]oxy}acetyl)(methyl)amino]propyl}(methyl)carbamoyl]-2-thienyl}methyl)amino]hexanoyl}(methyl)amino]ethyl}piperidin-4-yl biphenyl-2-ylcarbamate]	1.5	1.4	0.0177	0.0147			
CN(CCN1CCC(OC(=O)Nc2ccccc2-c2ccccc2)CC1)C(=O)CCCCCNc1ccc(C(=O)N(C)CCCN(C)C(=O)CO[C@H]2Cc3ccccc3C23CCN(CC[C@@]2(c4ccc(F)cc4)CN(C(=O)c4cc(C(F)(F)F)cc(C(F)(F)F)c4)CO2)CC3)nc1 [Example 9, 1-(2-{[6-({6-[{3-[({[(2S)-1′-{2-[(5R)-3-[3,5-Bis(trifluoromethyl)benzoyl]-5-(4-fluorophenyl)-1,3-oxazolidin-5-yl]ethyl}-2,3-dihydrospiro[indene-1,4′-piperidin]-2-yl]oxy}acetyl)(methyl)amino]propyl}(methyl)carbamoyl]pyridin-3-yl}amino)hexanoyl](methyl)amino}ethyl)piperidin-4-yl biphenyl-2-ylcarbamate]	2.1	1.3	0.0164	0.0348			
CN(CCN1CCC(OC(=O)Nc2ccccc2-c2ccccc2)CC1)C(=O)CCCCCNc1ncc(C(=O)N(C)CCCN(C)C(=O)CO[C@H]2Cc3ccccc3C23CCN(CC[C@@]2(c4ccc(F)cc4)CN(C(=O)c4cc(C(F)(F)F)cc(C(F)(F)F)c4)CO2)CC3)cn1 [Example 14, 1-(2-{[6-({5-[{3-[({[(2S)-1′-{2-[(5R)-3-[3,5-Bis(trifluoromethyl)benzoyl]-5-(4-fluorophenyl)-1,3-oxazolidin-5-yl]ethyl}-2,3-dihydrospiro[indene-1,4′-piperidin]-2-yl]oxy}acetyl)(methyl)amino]propyl}(methyl)carbamoyl]pyrimidin-2-yl}amino)hexanoyl](methyl)amino}ethyl)piperidin-4-yl biphenyl-2-ylcarbamate trihydrochloride]	1.9		0.0129	0.0172	0.93		
CN(CCN1CCC(OC(=O)Nc2ccccc2-c2ccccc2)CC1)C(=O)CCCCCNc1ccc(C(=O)N(C)CCN(C)C(=O)CO[C@H]2Cc3ccccc3C23CCN(CC[C@@]2(c4ccc(F)cc4)CN(C(=O)c4cc(C(F)(F)F)cc(C(F)(F)F)c4)CO2)CC3)cc1 [Example 15, 1-(2-{[6-({4-[{2-[({[(2S)-1-{2-[(5R)-3-[3,5-Bis(trifluoromethyl)benzoyl]-5-(4-fluorophenyl)-1,3-oxazolidin-5-yl]ethyl}-2,3-dihydrospiro[indene-1,4′-piperidin]-2-yl]oxy}acetyl)(methyl)amino]ethyl}(methyl)carbamoyl]phenyl}amino)hexanoyl](methyl)amino}ethyl)piperidin-4-yl biphenyl-2-ylcarbamate]	1.5	1.2	0.0375			0.0224	
CN(CCN1CCC(OC(=O)Nc2ccccc2-c2ccccc2)CC1)C(=O)CCCCCNc1ccc(C(=O)N(C)CCN(C)C(=O)CO[C@H]2Cc3ccccc3C23CCN(CC[C@@]2(c4ccc(F)cc4)CN(C(=O)c4cc(C(F)(F)F)cc(C(F)(F)F)c4)CO2)CC3)cc1 [Example 16, 1-(2-{[6-({4-[{2-[({[(2S)-1′-{2-[(5R)-3-[3,5-Bis(trifluoromethyl)benzoyl]-5-(4-fluorophenyl)-1,3-oxazolidin-5-yl]ethyl}-2,3-dihydrospiro[indene-1,4′-piperidin]-2-yl]oxy}acetyl)(methyl)amino]ethyl}(methyl)carbamoyl]phenyl}amino)hexanoyl](methyl)amino}ethyl)piperidin-4-yl biphenyl-2-ylcarbamate trihydrochloride]	2.5			0.016	2.4		0.0191
Cc1cc(NCCCCCC(=O)N(C)CCN2CCC(OC(=O)Nc3ccccc3-c3ccccc3)CC2)ccc1C(=O)N(C)CCCN(C)C(=O)CO[C@H]1Cc2ccccc2C12CCN(CC[C@@]1(c3ccc(F)cc3)CN(C(=O)c3cc(C(F)(F)F)cc(C(F)(F)F)c3)CO1)CC2 [Example 18, 1-(2-{[6-({4-[{3-[({[(2S)-1′-{2-[(5R)-3-[3,5-Bis(trifluoromethyl)benzoyl]-5-(4-fluorophenyl)-1,3-oxazolidin-5-yl]ethyl}-2,3-dihydrospiro[indene-1,4′-piperidin]-2-yl]oxy}acetyl)(methyl)amino]propyl}(methyl)carbamoyl]-3-methylphenyl}amino)hexanoyl](methyl)amino}ethyl)piperidin-4-yl biphenyl-2-ylcarbamate trihydrochloride]	1.8		0.0389	0.0614	1.2		
CN(CCN1CCC(OC(=O)Nc2ccccc2-c2ccccc2)CC1)C(=O)CCCCCNc1ccc(C(=O)N(CCCN(C)C(=O)CO[C@H]2Cc3ccccc3C23CCN(CC[C@@]2(c4ccc(F)cc4)CN(C(=O)c4cc(C(F)(F)F)cc(C(F)(F)F)c4)CO2)CC3)C2CC2)cc1 [Example 25, 1-(2-{[6-({4-[{3-[({[(2S)-1′-{2-[(5R)-3-[3,5-Bis(trifluoromethyl)benzoyl]-5-(4-fluorophenyl)-1,3-oxazolidin-5-yl]ethyl}-2,3-dihydrospiro[indene-1,4′-piperidin]-2-yl]oxy}acetyl)(methyl)amino]propyl}(cyclopropyl)carbamoyl]phenyl}amino)hexanoyl](methyl)amino}ethyl)piperidin-4-yl biphenyl-2-ylcarbamate trihydrochloride]	1.7		0.0459	0.0437	1.4		
